In patent US11357873B2, “Chiral cyclen compounds and their uses” (THE HONG KONG POLYTECHNIC UNIVERSITY, priority 2016, dated 2022):

How the values were obtained:
[1] = Circularly polarized luminescence (CPL), dissymmetry factor glum; assay type: physicochemical; conditions: for glum ΔJ = 1 (λ) DMSO / glum ΔJ = 3 (λ) DMSO / glum ΔJ = 1 (λ) H2O / glum ΔJ = 3 (λ) H2O: wavelength in parentheses in the cell
Procedure: (§1) Steady-state room temperature photoluminescence measurements were performed with an Edinburgh Instrument FLSP920 spectrophotometer equipped with a Xe900 continuous xenon lamp, μF920 microsecond flash lamp and a single photon counting photomultiplier tube. Spectra were corrected with the bundled F900 software. Solution-state measurements were conducted using quartz curettes of 10 mm path length. CPL measurements were conducted on a custom built spectrometer^63 (in Durham University) consisting of a laser driven light source (Energetiq EQ-99 LDLS, spectral range 170 to 2100 nm) coupled to an Acton SP2150 monochromator (600 g/nm, 300 nm Blaze) that allows excitation wavelengths to be selected with a 6 nm FWHM band-pass. The collection of the emitted light was facilitated (90° angle set up, 1 cm path length quartz curette) by a Lock-In Amplifier (Hinds Instruments Signaloc 2100) and Photoelastic Modulator (Hinds Instruments PEM-90). The differentiated light was focused onto an Acton SP2150 monochromator (1200 g/nm, 500 nm Blaze) equipped with a high sensitivity cooled Photo Multiplier Tube (H10723-20 Extended red-multialkali PMT based photosensor (5V)). Spectra were recorded using a 5 spectral average sequence in the range of 570-720 nm with 0.5 nm spectral intervals and 500 μs integration time.

[2] = Absorption and photoluminescence (quantum yield, lifetime, q); assay type: physicochemical; parameters: λabs(max): unit not given here; conditions: for R, I(5D0 → 7F2)/I(5D0 → 7F1): asymmetry ratio, 10 in MeOH; for R, I(5D0 → 7F2)/I(5D0 → 7F1) / λabs(max): room temperature, 11 in DMSO; for q (Parker's) / q (Horrocks'): from lifetimes in H2O and D2O; for q (Parker's): first value of cell; for q (Horrocks'): second value of cell; for ΦEuEu (%): intrinsic quantum yield, calculated value; for τD2O/MeOD / τH2O/MeOH: luminescence lifetime, 5D0 → 7F2 transition; for τD2O/MeOD: D2O (MeOD for 10); for τH2O/MeOH: H2O (MeOH for 10); for ΦDMSO (%): luminescence quantum yield in DMSO; for ΦH2O/MeOH (%): luminescence quantum yield relative to quinine sulfate in 0.1M H2SO4, H2O (MeOH for 10, insoluble in H2O); for ΦHEPES (%): luminescence quantum yield, 0.1M HEPES buffer, pH 7.4; for λabs(max): 10 measured in MeOH; for ηsens (%): sensitization efficiency, calculated according to ref 61
Procedure: as §1, with “Absorption spectra of complexes were measured with HP UV-8453 spectrophotometer. Steady-state” for “Steady-state”, “time. The recorded CPL spectrum underwent a 25% Fourier transformation smoothening protocol using Origin 8.0 Software (Origin Labs) to enhance appearance (all calculations were carried out using raw spectral data).” for “time.”
The shift in absorption is caused by electronic communication between the electropositive lanthanide center and the chromophore. […] These are not observed for 11, however, as we believe the steric effect of the planar phenyl ring of the benzyl group could not be alleviated by appropriate rotation, whereas that of the isobutyl group could.
The luminescence quantum yields of the complexes are decent in water and HEPES solution, although they are much higher in DMSO, due to the nonradiative quenching by O—H oscillators of water molecules in the second coordination sphere (Table 6). The intrinsic quantum yields^61—a calculated value evaluating the quantum yield of Eu(III) via direct metal excitation—of the complexes are calculated, and, as expected, the values are very similar, except for 10. The higher value corroborates with the shift in absorption maximum, for which we believe the reason is due to a shorter europium—chromophore distance and better interaction. On the other hand, the sensitization efficiencies of the complexes vary. […] The relatively remarkable ηsens of 13 is attributed to its structural rigidity, as both the tetraaza backbone and the acetate arms are modified with a chrial substituent, i.e., double chirality. The double chirality is also attributed for the increase in luminescence quantum yield compared to that of 12a/12b.

| SMILES | glum ΔJ = 1 (λ) DMSO [1] | glum ΔJ = 3 (λ) DMSO [1] | glum ΔJ = 3 (λ) H2O [1] | R, I(5D0 → 7F2)/I(5D0 → 7F1) [2] | q (Parker's) [2] | q (Horrocks') [2] | ΦEuEu (%) [2] [%] | τD2O/MeOD [2] [ms] | τH2O/MeOH [2] [ms] | ΦDMSO (%) [2] [%] | ΦH2O/MeOH (%) [2] [%] | ΦHEPES (%) [2] [%] | λabs(max) [2] | ηsens (%) [2] [%] | also measured |
| --- | --- | --- | --- | --- | --- | --- | --- | --- | --- | --- | --- | --- | --- | --- | --- |
| COc1cc(OC)c(C#Cc2cc(CN3CCN(C(C)C(=O)[O-])CCN(C(C)C(=O)[O-])CCN(C(C)C(=O)[O-])CC3)nc(P(C)(=O)[O-])c2)c(OC)c1.[Eu+3] (single isomer, unassigned) [Complex 12a] |  |  |  |  |  |  |  |  |  |  |  |  |  |  | glum ΔJ = 1 (λ) DMSO ([1]; listed as 12a): −0.04 (591); glum ΔJ = 3 (λ) DMSO ([1]; listed as 12a): −0.04 (657); glum ΔJ = 1 (λ) H2O ([1]; listed as 12a): −0.03 (588); glum ΔJ = 3 (λ) H2O ([1]; listed as 12a): −0.05 (653); R, I(5D0 → 7F2)/I(5D0 → 7F1) ([2]; listed as 12a): 2.74; q (Parker's) ([2]; listed as 12a): 0.07; q (Horrocks') ([2]; listed as 12a): 0.01; ΦEuEu (%) ([2]; listed as 12a): 26.6%; τD2O/MeOD ([2]; listed as 12a): 1.70 ms; τH2O/MeOH ([2]; listed as 12a): 1.12 ms; ΦDMSO (%) ([2]; listed as 12a): 46.4%; ΦH2O/MeOH (%) ([2]; listed as 12a): 12.7%; ΦHEPES (%) ([2]; listed as 12a): 12.4%; λabs(max) ([2]; listed as 12a): 352; ηsens (%) ([2]; listed as 12a): 47.0% |
| CC[C@H]1CN(CC(=O)[O-])[C@@H](CC)CN(Cc2cc(C#Cc3c(OC)cc(OC)cc3OC)cc(P(C)(=O)[O-])n2)[C@@H](CC)CN(CC(=O)[O-])[C@@H](CC)CN1CC(=O)[O-].[Eu+3] [Complex 8] | −0.18 (591) | +0.17 (657) | −0.28 (653) | 2.43 | 0.10 | 0.02 | 26.0 | 1.76 | 1.12 | 50.0 | 14.0 | 14.0 | 356 | 53.8 | glum ΔJ = 1 (λ) H2O [1]: −0.11 (591) |
| COc1cc(OC)c(C#Cc2cc(CN3CCN(CC(=O)[O-])CCN(CC(=O)[O-])CCN(CC(=O)[O-])CC3)nc(P(C)(=O)[O-])c2)c(OC)c1.[Eu+3] [Complex 7] |  |  |  | 2.52 | 0.06 | 0.01 | 23.6 | 1.44 | 1.01 | 47.0 | 7.6 | 6.9 | 353 | 32.3 |  |
| CCC1CN(C(C)C(=O)[O-])C(CC)CN(C(C)C(=O)[O-])C(CC)CN(C(C)C(=O)[O-])C(CC)CN1Cc1cc(C#Cc2c(OC)cc(OC)cc2OC)cc(P(C)(=O)[O-])n1.[Eu+3] (centres unmarked) [Complex 13] | −0.17 (588) | −0.29 (657) | −0.33 (652) | 2.66 | 0.00 | 0.06 | 30.2 | 1.83 | 1.25 | 49.7 | 21.9 | 20.9 | 356 | 72.6 | absolute glum 589 nm ([1]; aqueous solution): 0.23 |
